Results from patent publication US20200230136A1, “SELECTIVE ADRENORECEPTOR ALPHA2C RECEPTOR ANTAGONISTS ALONE, OR IN COMBINATION WITH CHYMASE INHIBITORS FOR USE IN THE TREATMENT AND/OR PROPHYLAXIS OF PERIPHERAL ARTERY DISEASES (PAD)” (Bayer Aktiengesellschaft, priority 2017, published 2020).

Tests used:
Format in all cases: in vivo
[1] = test system: ischemic wounds in New Zealand white rabbits; test: Wound healing in the ischemic rabbit ear model
Procedure: Ischemic wounds (three 7 mm full-thickness dermal punches on the inner surface of both ears) were induced in New Zealand white rabbits. Oral gavage was done through a nasogastric tube or catheter. 20 rabbits were treated with Compound of Ex. 8 (0.3 mg/kg; n=10) or vehicle (10% ethanol, 30% PEG 400, 60% tap water, n=10) through the catheter daily at multiple time points [post-wounding days (POD) 3, 4, 5, 6 and 7]. Wounds were harvested on POD 10. For histologic analysis, one-half of wounds including the surrounding normal skin in rectangular shape was taken. One-half of the wound was frozen for further molecular analysis. Tissues underwent routine processing, paraffin embedding, and sectioning. A 4 μm cross section through the center of each rectangular biopsy was taken. The tissues were stained with hematoxylin and eosin and examined under light microscopy. Several histomorphometric measurements were determined, using a digital image analysis system (NIS-Elements Basic Research; Nikon Instech Co, Kanagawa, Japan) at 2 fold and 10 fold magnification. Each parameter was measured in a blinded manner.
In addition, tissue oxygen tension and blood flow were examined by the OxyLite® system (Oxford Optronix). Oxygen tension and blood flow were measured on POD 3, 7 and 10 in each rabbit. The oxygen tension unit is mmHg and the blood flow unit is blood PUs. The results were presented as ratio of O2-ischemia/O2-non-ischemia, or flow-ischemia/flow-non-ischemia. Analysis was performed by comparison between control and treatment groups on POD 3, 7 and 10.

[2] = test system: full-thickness wounds in STZ-challenged minipigs; test: Wound healing in streptozotocin (STZ)-challenged minipigs
Procedure: Wounds (twelve 15.15-mm full-thickness wounds) were induced in STZ-challenged minipigs. STZ challenge (160 mg/kg) was performed 14 days before wounding in 15 animals, two out of 15 animals had to be sacrificed due to blood glucose instability. The remaining 13 animals (body weight around 25 kg: 27.92±2.35 kg on the day of STZ dosing, Day 0: 24.35±2.14 kg and Day 17: 23.27±2.24 kg) were randomized to 3 groups:
Group I) placebo: Animal 1, 8, 10 and 13; Group II) 0.6 mg/kg Compound of Ex 8: Animal 2, 7, 11 and 12; Group III) 0.1 mg/kg Compound of Ex. 8: Animal 3, 4, 6, 14 and 15
Oral gavage was done by gelatin capsules containing Compound of Ex. 8 or lactose as placebo (25 kg body weight was assumed for all animals).
Topical treatment was performed using Compound of Ex. 8 in a concentration of 0.06 mg/mL in a Pluronic® gel matrix or as placebo Pluronic® gel at a volume of 1 mL per wound. The whole study was performed in a blinded manner. The 12 wounds per animal were treated according to Table 1 to combine oral treatment with and without topical treatment in this study. Wounds were closed by a sterile reclosable bag system. Animals were treated orally BID for 17 days starting after wounding (Day 0) and topically once daily on Days 0, 2, 5, 8, 11 and 14. On Day 17, wounds were harvested and animals sacrificed.
The primary endpoint of this study was wound size over study time. Wound size was evaluated via photographs and evaluated by photoshop under blinded conditions. Wound size was shown in absolute numbers as well as percent size vs. wound size on Day 0. In addition, re-epithelialization as well as wound contracture were determined The mean of all 12 wounds per animal was compared to Day 0. […] Between Day 5 and Day 11, a differentiation between the animals was observed.

[3] = test system: atherosclerotic ApoE-/- mice, hindlimb ischemia; test: Effects on running distance in apolipoprotein E knockout mice after hindlimb ischemia
Procedure: To evaluate effects more closely, the percent change in running distance compared to the run-in values (2 week run-in period before ligature) of all animals were analyzed.
FIG. 8: Effects of Compound of Ex. 8 on daily running distance in atherosclerotic ApoE-/- mice before and after induction of bilateral hindlimb ischemia (mean±SEM; 10 to 11 animals) • ApoE-/-=apolipoprotein E knockout; Ctrl.=control; SEM=standard error of mean

[4] = test system: diabetic ZDF fa/fa rats, ligature of the left iliac artery; test: Effects on ankle-brachial index in ZDF rats (unilateral hindlimb ischemia model)
Procedure: Compound of Ex. 8 induced a 10 to 30% improvement in the perfusion index (FIG. 7). […] Corresponding plasma concentrations were measured between 4 and 47 μg/L.
FIG. 6: Effects of Compound of Ex. 8 on perfusion pressure indices. Shown are baseline value (Od) as well as perfusion pressure indices after ligature of the left iliac artery and 2 weeks of daily treatment (14 d) with Compound of Ex. 8 in diabetic ZDF fa/fa rats (raw data; 10 animals) • Student t-test, Compound of Ex. 8 versus vehicle; ZDF=Zucker diabetic fatty
FIG. 7: Percent change in perfusion pressure indices by Compound of Ex. 8 after 14 days (14 d) of daily treatment compared to baseline values (mean±SEM; 10 animals) • SEM=standard error of mean; ZDF=Zucker diabetic fatty

[5] = 0.6 mg treated wounds vs placebo

## O=C(c1cnc(N2CC3(COC3)C2)nc1)N1CCC(N2CCc3ccccc3C2)CC1 [Compound of Ex. 8, [4-(3,4-Dihydroisoquinolin-2(1H)-yl)piperidin-1-yl][2-(2-oxa-6-azaspiro[3.3]hept-6-yl)pyrimidin-5-yl]methanone]
[1]; 0.3 mg/kg oral, POD 3-7, wounds harvested POD 10, P=0.07 vs control
  granulation area: 133,630+20,208 μm^2
[1]; 0.3 mg/kg oral, POD 3-7, wounds harvested POD 10, no significant difference vs control
  epithelial gap: 5,212+213 μm
[1]; 0.3 mg/kg, POD 10, P=0.018 vs control
  blood flow ratio (flow-ischemia/flow-non-ischemia): 0.495
[1]; 0.3 mg/kg, POD 10, P=0.079 vs control
  oxygen tension ratio (O2-ischemia/O2-non-ischemia): 0.238
[1]; 0.3 mg/kg, same rabbit, P=0.108 vs control
  change in blood flow ratio from POD 3 to POD 10: 0.149
[1]; 0.3 mg/kg, same rabbit, P=0.322 vs control
  change in oxygen tension ratio from POD 3 to POD 10: 0.082
[2]; 0.1 mg/kg oral BID vs placebo, Day 2 (P=0.011) and Day 5 (P=0.014)
  wound size, wounds without topical treatment (Wounds 1 to 6): significant improvement vs. placebo
[2]; 0.1 mg/kg oral BID, Day 2, 5, 8, 11 and 17
  wound contracture: improvement in wound contracture being significant
[2]; 0.1 mg/kg oral BID, between Day 5 and Day 11
  course of wound healing (variability): greater heterogeneity
[2]; [5]
  histology: cell proliferation: reduced cell proliferation
  histology: collagen III/I ratio: lower collagen III/I ratio
  histology: detectable vessels: more detectable vessels
  histology: differentiation level of the epidermis: increased differentiation level of the epidermis
  histology: inflammation: reduced inflammation
  histology: re-epithelialization level: higher re-epithelialization level
  histology: structuring of basement membranes defined by laminin detection: increased structuring of basement membranes
[2]; 0.6 mg treated wounds vs placebo, wounds harvested Day 17
  histological evaluation of wound healing: more advanced wound healing
[2]; 0.6 mg/kg oral BID 17 days vs placebo, all 12 wounds per animal, all days (FIG. 1)
  wound size over time, mean of all wounds: significantly improved wound healing
[2]; 0.6 mg/kg oral BID vs placebo, all values (FIG. 2)
  wound size, wounds without topical treatment (Wounds 1 to 6): significantly better compared to the placebo group
[2]; 0.6 mg/kg oral BID, Day 2, 5, 8 and 11
  wound contracture: improvement in wound contracture being significant
[2]; 0.6 mg/kg oral BID, Day 8
  difference in wound size vs placebo, wounds without topical treatment (Wounds 1 to 6): about 21.6%
[2]; 0.6 mg/kg oral BID, Day 17, two animals of the group
  re-epithelialization: complete and stable re-epithelialization
[2]; 0.6 mg/kg oral BID, between Day 5 and Day 11, vs placebo and 0.1 mg/kg groups
  speed of wound healing: quicker wound healing compared to the 2 other groups
[2]; 0.6 mg/kg vs 0.1 mg/kg group, Days 8, 11, 14 and 17
  wound size, wounds without topical treatment (Wounds 1 to 6), dose comparison: significantly better compared to the 0.1 mg/kg group
[3]; 10 μg/ml (FIG. 9)
  total running distance, percent change vs run-in values: tendency toward an improvement
[3]; 30 μg/kg vs placebo
  running distance, area under the curve from Day 0 to Day 28: significant improvements compared to placebo
[3]; 30 μg/kg, several days during the 4 week observation period (FIG. 10)
  running distance, percent change vs run-in values: significant improvement in running distance
[3]; 100 μg/kg vs placebo
  running distance, area under the curve from Day 0 to Day 28: significant improvements compared to placebo
[3]; 100 μg/kg, several days during the 4 week observation period (FIG. 11)
  running distance, percent change vs run-in values: significant improvement in running distance
[3]; oral administration of 10, 30 and 100 μg/mL, after induction of hindlimb ischemia (FIG. 8)
  running distance: increase in running distance
[4]; 0.3 mg/kg (most effective dose), 14 d daily treatment
  perfusion pressure: significant increase in perfusion pressure
[4]; 0.1, 0.3 and 1 mg/kg
  muscle function in the ligated limb: slight tendency toward improved muscle function
[4]; 0.1, 0.3 and 1 mg/kg, 2 weeks of daily treatment (FIG. 6)
  perfusion indices: increase in perfusion indices at all doses
